Measurements: patent US12606542B2, “[(1,5-diheteroaryl-1H-1,2,4-triazol-3-yl)oxy] acetic acid derivatives as safeners for the protection of useful plants and crop plants” (BAYER AKTIENGESELLSCHAFT, priority 2020, dated 2026)

Tested on: summer wheat (TRZAS; cv. Triso)
Assay: Reduction of damage by mesosulfuron-methyl on summer wheat (greenhouse safener test, post-emergence)
Type: in vivo
Parameters: key: 0: no reduction in damage (appearance corresponding to the herbicide control); 1: slight reduction in damage; 2: distinct reduction in damage; 3: significant reduction in damage; 4: complete reduction in damage (appearance corresponding to the untreated control)
Conditions: safener 100 g/ha as WP spray at early leaf stage (BBCH10-BBCH12), then mesosulfuron-methyl 40-60 g/ha; visual assessment 9-13 days after application; crop plant TRZAS
Experimental: 2.1 Relative Action of Selected Compounds of the Invention Using the Example of Reduction of Damage by Mesosulfuron-Methyl on Summer Wheat (TRZAS) The seeds of the crop plants to be treated are laid out in sandy loam in plastic pots (diameter ˜4 cm), covered with soil and grown in a greenhouse under good conditions for germination and growth. The trial plants were treated at the early leaf stage (BBCH10-BBCH12). In the course of this, the inventive compounds of the general formula (I) formulated in the form of wettable powders (WP) were sprayed onto the above-ground parts of the plants as an aqueous suspension with a water application rate corresponding to 800 l/ha with addition of wetting agent (e.g. 0.2% Genapol-LRO or 0.2% Mero) in the specified dose. This was followed by the application of the herbicide. For this purpose, mesosulfuron-methyl, formulated in the form of water-dispersible granules (WG), was sprayed onto the above-ground parts of the plants in the form of an aqueous dispersion with a water application rate corresponding to 800 l/ha with addition of wetting agent (e.g. 0.2% Genapol-LRO or 1 l/ha Biopower) in a dose of 40-60 g/ha. […] 9-13 days after application, the efficacy of the test compounds was assessed visually. […]

COC(=O)COc1nc(-c2ccc(F)cn2)n(-c2ccc(Cl)cn2)n1 [Example I.31-10, Methyl {[1-(5-chloropyridin-2-yl)-5-(5-fluoropyridin-2-yl)-1H-1,2,4-triazol-3-yl]oxy}acetate] was tested, and the “Efficacy of the safener (efficacy code)” value was 2.
